Results on one molecule are retold here after patent publication US9278920B2, “Pleuromutilin derivatives for use in the treatment of diseases mediated by microbes” (Nabriva Therapeutics AG, priority 2010, dated 2016).

The subject of assay [1] is Staphylococcus aureus ATCC49951. In words: MIC by Agar Dilution Test or Microdilution Test (CLSI M7-A7). The format is cell-based. The settings on record: in vitro, strain ATCC49951, read-out: MIC against Staphylococcus aureus ATCC49951. How it is done:
(§1) The in vitro activity against aerobic bacteria was determined by Agar Dilution Test or Microdilution Test according to the Clinical and Laboratory Standards Institute (CLSI, former NCCLS) Document M7-A7 Vol. 26, No. 2: “Methods for Dilution Antimicrobial Susceptibility Tests for Bacteria that Grow Aerobically—Approved Standard; Seventh Edition (2006)”; and the test against anaerobic bacteria was performed according to the Clinical and Laboratory Standards Institute (CLSI, former NCCLS), Document, M11-A6, Vol. 24, No. 2: “Methods for Antimicrobial Susceptibility Testing of Anaerobic Bacteria—Approved Standard; Sixth Edition (2004)” and the in vivo activity was tested by the septicemia mouse model against Staphylococcus aureus.
Background: In agar dilution the substance is mixed into plates at graded concentrations.

In assay [2] the test system is Streptococcus pneumoniae ATCC49619. The assay is described as above. The format is cell-based. The settings on record: in vitro, strain ATCC49619, read-out: MIC against Streptococcus pneumoniae ATCC49619. How it is done:
as §1

Where a name gives a salt, the structure may show the parent alone.

One may read the MIC as the smallest concentration in the dilution series that meets the test's criterion for growth inhibition. With `C=C[C@]1(C)C[C@@H](OC(=O)CSC2CCC(N)CCC2O)[C@]2(C)C(C)CCC3(CCC(=O)C32)[C@@H](C)C1O` (mixture of isomers) [Example 12, 14-O-{[(1R, 2R, 5R)-5-Amino-2-hydroxy-cycloheptylsulfanyl]-acetyl}-mutilin hydrochloride and the (1S, 2S, 5S), (1R, 2R, 5S), (1S, 2S, 5R) diastereomers thereof], the MIC in assay [1] and in assay [2] was at most 2 µg/mL in each case.
